Usually IC50 stands for the concentration needed to halve the response being measured. A high value points to weaker potency.

This note sets out measurements from article PMC10809383, “Synthesis and migrastatic activity of cytochalasin analogues lacking a macrocyclic moiety” (RSC Medicinal Chemistry, 2023).

For assay [1], the system named is human fibroblasts (MRC-5). Put plainly: WST-1 viability assay, MRC-5 cells. In kind it is cell-based. As to conditions: MRC5, 72 h treatment, WST-1 assay, 2D culture, 0–50 μM. As for the experimental part: (§1) In addition, the cytotoxic activity of compounds 17, 20, and 22–30 was assessed by the WST-1 viability assay using BLM (human melanoma) and MRC-5 (noncancerous human fibroblasts) cells growing in a monolayer (2D cultures, Table 2) after 72 h of treatment.
(§2) Human cells from melanoma (BLM) and human lung fibroblasts (MRC-5, Merck, USA) were used to evaluate in vitro cytotoxicity of the prepared compounds. The cells were maintained at the exponential phase of growth (passaging done by trypsin–EDTA solution) in DMEM and MEM, for BLM and MRC-5, respectively, with stable L-glutamine and supplemented with 10% fetal bovine serum (Thermo Fisher Scientific, USA). The cells were kept in an incubator at 37 °C, 5% CO2 in the atmosphere, and 95% humidity.
(§3) The compound cytotoxicity was determined by a WST-1 viability assay (Merck, USA). The amount of 5000 BLM and MRC-5 cells were seeded into individual wells of 96-well plates in 100 μL of cell cultivation media and maintained in an incubator for 16 h. After this period, the cells were treated with a concentration series (0–50 μM) of the tested compounds diluted in another 100 μL of cultivation media, which was added to the wells containing cells and incubated for 72 h. Then, BLM and MRC-5 cell viability was evaluated by WST-1 agent (5% v/v solution in phenol red-free DMEM media), i.e., the cell media was discarded and 100 μL of WST-1 solution was added. After 2 h incubation, the absorbance of formazan, derived from the WST-1 tetrazolium salt was determined spectrophotometrically at 450 nm (reference at 650 nm) by a UV-vis spectrophotometer (Bio-Rad, USA). Untreated cells, cells treated only with a vehicle, and cells treated with cytochalasin B (1) and D (2) served as controls. The measurement occurred in three independent repetitions each of which consisted of three technical replicates. The data were plotted as dose–response curves from which the half-maximal inhibitory concentrations (IC50) were calculated using AAT Bioquest.
For orientation: Tetrazolium dyes change colour on reduction, which living cells bring about.

In assay [2] the test system is human melanoma cells (BLM). Put plainly: WST-1 viability assay, BLM cells. In kind it is cell-based. The following applies: for IC50: Homo sapiens, 72 h treatment, WST-1 assay, 2D culture, 0–50 μM; for selectivity index (SI): MRC-5 versus BLM, 72 h, WST-1. The method, then: as §1, §2, §3
The subject of assay [3] is human melanoma cell line BLM. Put plainly: Spheroid invasion assay (migrastatic activity). The following applies: 24 h; for rel. spheroid area: 10 µM, BLM spheroids in collagen, DMSO control 1.02; for migrastatic activity (cell migration, in words): 10 μM, BLM spheroid invasion. In kind it is cell-based. The method, then:
Compounds 17, 20, and 22–30 were screened for their migrastatic activity using a spheroid invasion assay with the human melanoma cell line BLM.[46] Spheroids were formed and subsequently treated with cytochalasin analogues at a concentration of 10 μM for 24 h. CytB (1) and CytD (2) served as reference compounds for comparison. There was no significant increase in cell migration observed for any of the compounds tested. […] However, the effect was less profound than that of the reference compounds 1 and 2.
The spheroid invasion assay was performed following a previously published protocol.[63] Briefly, BLM cells were grown as spheroids using 3D Petri Dish (Microtissues). After 2 days of spheroid formation, 1.5 mg mL^−1 collagen solution (rat tail, collagen type I) was prepared (1.5 mg mL^−1 rat-tail collagen, 1× DMEM, 1% (v/v) FBS) and added at the bottom of a 96-well plate. Spheroids were embedded into the collagen (one spheroid per well) and covered with another layer of the gel. Collagen was polymerized at 37 °C and subsequently overlaid with a cultivation medium. Images of spheroids were taken with Leica TCS SP2 microscope (5×/0.15 dry objective; LAS X Life Science Microscope software) immediately after their seeding into collagen and again after 24 h. The area of the spheroids at 0 and 24 h was measured using FiJi (Rasband, W.S., ImageJ, NIH, Bethesda, MD, USA). Cellular invasiveness was determined as an increase in spheroid area within 24 h. Three independent experiments were conducted with at least 8 spheroids analysed in each experiment. Statistical analysis was performed in GraphPad using one-way ANOVA. For numeric data and representative images from this assay, see ESI, ^† Table S1 and Fig. S1.
Table S1: Spheroid invasion assay with BLM cell line at 10 µM concentration, 24 h.
Figure S1: Representative images of BLM cell spheroid invasion assay with or without
inhibitor. Images were taken at 0 h and 24 h. using a Leica TCS SP2 microscope (5x/0.15
dry objective). DMSO (first column) was used as a control. Scale bar 500 µm.

Assay [4] concerns HT1080 fibrosarcoma cells. Put plainly: Fluorescence microscopy of actin cytoskeleton (SPY650-FastAct time-lapse). In kind it is cell-based. The following applies: 10 μM, within 2 min of addition. As for the experimental part: Next, we conducted experiments to assess the impact of compound 24, CytB (1) and CytD (2) on the actin cytoskeleton using fluorescence microscopy in HT1080 fibrosarcoma cells (Fig. 3). […] Therefore, we increased the concentration up to 50 μM.
HT1080 cells were seeded into 12-well glass bottom plate and stained with SPY650-FastAct™ following manufacturer's protocol. Untreated cells (control) were imaged every 20 s for 15 min using Leica TCS SP2 microscope (40×/0.6 dry objective). Afterwards, an inhibitor (compound 24 at 10 μM; 50 μM or compound 1 and 2 at 10 μM) was added into the same well and its effect was recorded for 15 min (20 s/image). All video recordings were analyzed using FiJi (Rasband, W.S., ImageJ, NIH, Bethesda, MD, USA).

Another assay has as its target T1, actin (Oryctolagus cuniculus, UniProt P68135).
T1 construct: purchased Cytoskeleton, Inc, Denver, CO
Put plainly: Actin polymerization assay (pyrene-actin, Actin Polymerization Biochem Kit). In kind it is biochemical. As to conditions: 10 μM, in vitro. As for the experimental part:
To further ascertain the compounds' interference with actin polymerization, the active compounds, along with CytB (1) as a positive control and compound 26 as a negative control, were subjected to an in vitro actin polymerization assay (Fig. 2B). […] This correlation between actin inhibitory activity and migrastatic effect underscores the pivotal role of actin polymerization inhibition in mediating the observed migrastatic activity.
Actin polymerization assay was performed using Actin Polymerization Biochem Kit™ (Cytoskeleton, Inc, Denver, CO) according to the manufacturer protocol. Briefly, 25 μL of G-buffer containing labelled pyrene-actin (0.4 mg mL^−1) and 2.48 μL of either DMSO (10 μM, control) or inhibitor (10 μM) was added in […] well plate. Actin polymerization was initiated by the addition of 2.48 μL of 10× actin polymerization buffer and analysed in time until fluorescent signal plateau was reached using a spectrophotometer (Infinite 200 PRO, Tecan Life Sciences, Tecan Group Ltd., Zürich, CHE). The fluorescence emission intensity of actin polymerization was measured at 420 nm and 360 nm was used as excitation wavelength. Statistical analysis was performed in GraphPad using one-way ANOVA. Measurements were performed in three independent repetitions each consisting of at least three technical replicates. For a representative graph from this assay, see ESI, ^† Fig. S2.

Entries after “also recorded” stand apart in the source; their conditions may differ.

With `C=C1[C@@H](C)[C@H]2[C@H](Cc3ccccc3)NC(=O)[C@]23[C@H](OC(C)=O)/C=C/[C@@](C)(O)C(=O)[C@@H](C)C/C=C/[C@H]3[C@@H]1O` [CytD (2), cytochalasin D, reference compound], the figures for the IC50 in assay [1] and in assay [2] were 2.36 ± 0.07 µM and 13.7 ± 1.2 µM, respectively. Also, the “selectivity index (SI)” value in assay [2] turned out to be 0.17. The compound also gave a rel. spheroid area in assay [3] of 0.23. Also, the “effect on the actin cytoskeleton” value in assay [4] is “profound effect on the actin cytoskeleton”.
For `CC1=C[C@H](CCOCCc2ccccc2)[C@]2(CO)C(=O)N[C@@H](Cc3ccccc3)[C@@H]2[C@@H]1C` [Compound 30, (3S,3aR,4S,7S,7aS)-3-Benzyl-7a-(hydroxymethyl)-4,5-dimethyl-7-(2-phenethoxyethyl)-2,3,3a,4,7,7a-hexahydro-1H-isoindol-1-one], the IC50 in assay [1] was above 50 µM. This compound showed an IC50 in assay [2] above 50 µM. Further, in assay [3], the “migrastatic activity (cell migration, in words)” value was “significant decrease in cell migration; also recorded: modest migrastatic activity” and the rel. spheroid area is listed as 0.50. Moreover, the “inhibition of actin polymerization (in words)” value on actin is reported as “inhibit actin polymerization”.
In turn, `C=C1[C@@H](C)[C@H]2[C@H](Cc3ccccc3)NC(=O)[C@]23OC(=O)/C=C/[C@H](O)CCC[C@@H](C)C/C=C/[C@H]3[C@@H]1O` [CytB (1), cytochalasin B, reference compound] yielded an IC50 in assay [1] of 0.27 ± 0.01 µM. For the same compound, in assay [2], the IC50 came out at 26.2 ± 0.55 µM and the “selectivity index (SI)” value is 0.01. The compound further showed a rel. spheroid area in assay [3] of 0.26. In assay [4], the “effect on the actin cytoskeleton” value is listed as “profound effect on the actin cytoskeleton”.
For `COC(=O)[C@@]12C(=O)N[C@@H](Cc3ccccc3)[C@@H]1C(C)=C(C)[C@@H](O)[C@@H]2CCOCCc1ccccc1` [Compound 25, Methyl (1S,3aS,4R,5S,7aR)-1-benzyl-5-hydroxy-6,7-dimethyl-3-oxo-4-(2-phenethoxyethyl)-1,2,3,4,5,7a-hexahydro-3aH-isoindole-3a-carboxylate], in assay [1], the IC50 was above 50 µM. The same compound gave an IC50 in assay [2] above 50 µM. Besides, in assay [3], the “migrastatic activity (cell migration, in words)” value was “inactivity” and the rel. spheroid area is 1.15.
Turning to `COC(=O)[C@@]12C(=O)N[C@@H](Cc3ccccc3)[C@@H]1[C@H](C)C(C)=C[C@@H]2CCOCCc1ccccc1F` [Compound 17f, Methyl (1S,3aR,4S,7S,7aR)-1-benzyl-4-(2-(2-fluorophenethoxy)ethyl)-6,7-dimethyl-3-oxo-1,2,3,4,7,7a-hexahydro-3aH-isoindole-3a-carboxylate], the IC50 in assay [1] worked out at 34.5 ± 4.69 µM. Besides, in assay [2], the IC50 amounted to 21 ± 4.32 µM and the “selectivity index (SI)” value is recorded as 1.6. In addition, in assay [3], the rel. spheroid area is on record as 0.92.
The corresponding values for `COC(=O)[C@@]12C(=O)N[C@@H](Cc3ccccc3)[C@@H]1[C@H](C)C(C)=C[C@@H]2CCOCCc1ccc([N+](=O)[O-])cc1` [Compound 17j, Methyl (1S,3aR,4S,7S,7aR)-1-benzyl-6,7-dimethyl-4-(2-(4-nitrophenethoxy)ethyl)-3-oxo-1,2,3,4,7,7a-hexahydro-3aH-isoindole-3a-carboxylate] are 34.7 ± 6.18 µM, 35.2 ± 2.51 µM, 1.0 and 1.12.
The matching figures for `COC(=O)[C@@]12C(=O)N[C@@H](Cc3ccccc3)[C@@H]1[C@H](C)C(C)=C[C@@H]2CCOCCc1ccc(C)cc1` [Compound 17c, Methyl (1S,3aR,4S,7S,7aR)-1-benzyl-6,7-dimethyl-4-(2-(4-methylphenethoxy)ethyl)-3-oxo-1,2,3,4,7,7a-hexahydro-3aH-isoindole-3a-carboxylate]: 21.5 ± 2.78 µM, 30.3 ± 4.87 µM, 0.71 and 0.93.
Turning to `COC(=O)[C@@]12C(=O)N[C@@H](Cc3ccccc3)[C@@H]1C(C)=C(C)[C@@H](OC(C)=O)[C@@H]2CCOCCc1ccccc1` [Compound 28, Methyl (1S,3aS,4R,5S,7aR)-5-acetoxy-1-benzyl-6,7-dimethyl-3-oxo-4-(2-phenethoxyethyl)-1,2,3,4,5,7a-hexahydro-3aH-isoindole-3a-carboxylate], the IC50 in assay [1] and in assay [2] was above 50 µM throughout. In addition, the rel. spheroid area in assay [3] is given as 0.72.
Turning to `COC(=O)[C@@]12C(=O)N[C@@H](Cc3ccccc3)[C@@H]1[C@H](C)[C@@](C)(O)[C@@H](O)[C@@H]2CCOCCc1ccccc1` [Compound 23a, Methyl (1S,3aS,4R,5S,6R,7S,7aR)-1-benzyl-5,6-dihydroxy-6,7-dimethyl-3-oxo-4-(2-phenethoxyethyl)octahydro-3aH-isoindole-3a-carboxylate], the IC50 in assay [1] came to 20.9 ± 2.38 µM. Further, in assay [2], the IC50 stood at 9.41 ± 2.52 µM and the “selectivity index (SI)” value was found to be 2.2. In assay [3], this compound registered a rel. spheroid area of 1.01.
`COC(=O)[C@@]12C(=O)N[C@@H](Cc3ccccc3)[C@@H]1[C@H](C)C(C)=C[C@@H]2CCOCCc1ccc(Cl)cc1` [Compound 17g, Methyl (1S,3aR,4S,7S,7aR)-1-benzyl-4-(2-(4-chlorophenethoxy)ethyl)-6,7-dimethyl-3-oxo-1,2,3,4,7,7a-hexahydro-3aH-isoindole-3a-carboxylate]: the IC50 in assay [1] was 22.2 ± 12.2 µM; in assay [2] it was 19.5 ± 1.23 µM. The “selectivity index (SI)” value in assay [2] is reported as 1.1. The same compound displayed a rel. spheroid area in assay [3] of 1.17.
